In patent publication US11707530B2, “Ligand capable of multivalently binding to glutamine transporter, and composition comprising same” (TOKYO INSTITUTE OF TECHNOLOGY, priority 2016, dated 2023):

Columns and labels:
ASCT2 [1] = target: T1, ASCT2 (Homo sapiens, UniProt Q15758); details: background statement; read-out: Km (Michaelis constant, affinity for ASCT2); cited from earlier work
T1 sequence (Q15758 1-541): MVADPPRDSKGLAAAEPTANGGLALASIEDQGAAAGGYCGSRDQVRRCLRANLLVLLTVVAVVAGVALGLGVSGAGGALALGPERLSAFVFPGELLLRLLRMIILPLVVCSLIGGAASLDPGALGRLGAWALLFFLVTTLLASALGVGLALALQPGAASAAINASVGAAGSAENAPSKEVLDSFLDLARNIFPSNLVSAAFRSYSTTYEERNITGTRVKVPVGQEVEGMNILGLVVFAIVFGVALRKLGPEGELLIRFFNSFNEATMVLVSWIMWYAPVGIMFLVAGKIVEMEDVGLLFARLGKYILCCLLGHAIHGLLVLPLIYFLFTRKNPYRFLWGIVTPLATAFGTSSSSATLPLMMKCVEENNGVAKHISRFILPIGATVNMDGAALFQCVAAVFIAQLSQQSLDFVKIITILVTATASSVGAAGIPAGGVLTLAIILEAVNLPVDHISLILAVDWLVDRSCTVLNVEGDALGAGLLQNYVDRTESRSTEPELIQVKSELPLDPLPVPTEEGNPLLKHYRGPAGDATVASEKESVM

ASCT2 [2] = target: T1, ASCT2; assay: Antibody labeling of Bx-PC3 cells after incubation in Bzl-Ser solution; assay type: cell-based; parameters: endogenous in cells; host or cells: Bx-PC3 (BxPC-3) pancreatic cancer cells; details: 50 mM Bzl-Ser

Structure (SMILES) | Km (ASCT2 [1]) [µM] | antibody labeling, cells incubated in Bzl-Ser solution vs PBS+10% FBS (ASCT2 [2])
NC(=O)CC[C@H](N)C(=O)O [glutamine, L-glutamine] | 20 | 
N[C@@H](COCc1ccccc1)C(=O)O [Bzl-Ser, O-benzyl-L-serine] |  | no difference observed
